Laboratory results: patent publication US20250032460A1, “METHODS OF TREATING NEUROLOGICAL DISORDERS” (MapLight Therapeutics, Inc., priority 2021, published 2025)
Where “and” joins values, the source holds several entries; their conditions need not be identical. Identical values can stand only once.

Tests used:
[1] = Plasma concentrations during 7-day oral dosing in beagle dogs; format: in vivo; conditions: Group 3: Compound 1 1.5 mg/kg/day PO + fesoterodine fumarate 3 mg/kg/day PO
[2] = Plasma pharmacokinetics after single-dose intravenous administration in rats; format: in vivo, Sprague Dawley rats; conditions: for AUClast of desfesoterodine / C0 of desfesoterodine: IV
Procedure: The plasma concentration-time profile was evaluated for fesoterodine active metabolite desfesoterodine and Compound 1 in male Sprague Dawley rats following single-dose intravenous administration of fesoterodine (0.25 mg/kg) and Compound 1 (0.5 mg/kg and 1.5 mg/kg) alone and single-dose co-administration. Plasma exposures of desfesoterodine were similar following administration of fesoterodine alone and in combination with Compound 1.

[3] = Post-procedure plasma exposure (salivation study); format: in vivo, Sprague Dawley rats
Procedure: An in vivo primary pharmacology study evaluating the fesoterodine fumarate dose-response antagonistic effect on Compound 1 induced salivation in anaesthetized male Sprague Dawley rats was conducted. […] Intravenous fesoterodine doses were administered at […]. Fesoterodine was dosed 10 minutes prior to dosage of Compound 1. All animals were normal with no observed abnormality detected in clinical signs or behavior. Salivation was measured by using oral dry swab in anesthetized rats with the calculated difference between the dry swab weight and the wet swab weight indicating the weight of saliva produced. Samples were collected post-dosing for one hour at 10-minute intervals.
At the end of the study period, plasma samples were collected to measure exposure of Compound 1, fesoterodine fumarate, and fesoterodine active metabolite 5-hydroxymethyl tolterodine (5-HMT), also referred to as desfesoterodine, is summarized in Table 2.

[4] = Single ascending dose study: pharmacokinetics (plasma, CSF); format: in vivo; conditions: Group 2, fesoterodine fumarate 8 mg 4 hours prior to 40 mg Compound 1
Procedure: Compound 1 was administered in a single ascending dose (SAD) study conducted in approximately 54 healthy adult volunteers to investigate Compound 1 pharmacokinetics, safety, and tolerability. The study was conducted in two groups.
Group 2 evaluated tolerability of Compound 1 at Group 1 MTD with or without fesoterodine fumarate co-administration. Subjects received 8 mg of fesoterodine fumarate tablet or matched placebo tablet 4 hours prior to administration of 40 mg of Compound 1.

[5] = Fesoterodine: 0.25 + Compound 1: 0.5 mg/kg
[6] = Fesoterodine: 0.25 + Compound 1: 1.5 mg/kg

## CC(C)N(CCC(c1ccccc1)c1cc(CO)ccc1O)C(C)C (stereo not shown) [desfesoterodine, 5-hydroxymethyl tolterodine]
[1]; Day 1, 2.00 h
  Plasma concentration of desfesoterodine, individual animals D3001-D3005: 32.4 ng/mL and 17.2 ng/mL and 74.2 ng/mL and 10.7 ng/mL and 45.5 ng/mL
[1]; Day 1, 4.00 h
  Plasma concentration of desfesoterodine, Mean: 9.29 ng/mL
  Plasma concentration of desfesoterodine, individual animals D3001-D3005: 7.08 ng/mL and 3.69 ng/mL and 17.0 ng/mL and 5.38 ng/mL and 13.3 ng/mL
[1]; Day 1, 8.00 h
  Plasma concentration of desfesoterodine, Mean: 2.78 ng/mL
  Plasma concentration of desfesoterodine, individual animals D3001-D3005: 1.41 ng/ml and 4.22 ng/ml and 3.82 ng/ml and BQL and 1.67 ng/ml
[1]; Day 1, 24.0 h
  Plasma concentration of desfesoterodine, individual animals D3001-D3005: BQL
[1]; Day 7, 0.00 h
  Plasma concentration of desfesoterodine, individual animals D3001-D3005: BQL
[1]; Day 7, 0.250 h
  Plasma concentration of desfesoterodine, Mean: 183 ng/mL
  Plasma concentration of desfesoterodine, individual animals D3001-D3005: 29.1 ng/mL and 60.6 ng/mL and 407 ng/mL and 149 ng/mL and 270 ng/mL
[1]; Day 7, 0.500 h
  Plasma concentration of desfesoterodine, Mean: 201 ng/mL
  Plasma concentration of desfesoterodine, individual animals D3001-D3005: 103 ng/mL and 77.7 ng/mL and 318 ng/mL and 197 ng/mL and 311 ng/mL
[1]; Day 7, 0.750 h
  Plasma concentration of desfesoterodine, Mean: 148 ng/mL
  Plasma concentration of desfesoterodine, individual animals D3001-D3005: 84.3 ng/mL and 66.4 ng/mL and 294 ng/mL and 102 ng/mL and 191 ng/mL
[1]; Day 7, 1.00 h
  Plasma concentration of desfesoterodine, Mean: 128 ng/mL
  Plasma concentration of desfesoterodine, individual animals D3001-D3005: 73.5 ng/mL and 64.7 ng/mL and 224 ng/mL and 105 ng/mL and 175 ng/mL
[1]; Day 7, 2.00 h
  Plasma concentration of desfesoterodine, Mean: 80.5 ng/mL
  Plasma concentration of desfesoterodine, individual animals D3001-D3005: 45.8 ng/mL and 42.6 ng/mL and 149 ng/mL and 63.2 ng/mL and 102 ng/mL
[1]; Day 7, 4.00 h
  Plasma concentration of desfesoterodine, Mean: 40.2 ng/mL
  Plasma concentration of desfesoterodine, individual animals D3001-D3005: 52.2 ng/mL and 15.2 ng/mL and 61.6 ng/mL and 31.6 ng/mL and 40.5 ng/mL
[1]; Day 7, 8.00 h
  Plasma concentration of desfesoterodine, Mean: 5.93 ng/mL
  Plasma concentration of desfesoterodine, individual animals D3001-D3005: 10.6 ng/mL and 3.92 ng/mL and 8.16 ng/mL and 2.93 ng/mL and 4.06 ng/mL
[1]; Day 7, 24.0 h
  Plasma concentration of desfesoterodine, individual animals D3001-D3005: BQL
[2]; Fesoterodine: 0.25 mg/kg alone
  AUClast of desfesoterodine: 15.41 ng·h/mL
  C0 of desfesoterodine: 27.09 ng/mL
[2]; [5]
  AUClast of desfesoterodine: 13.05 ng·h/mL
  C0 of desfesoterodine: 34.63 ng/mL
[2]; [6]
  AUClast of desfesoterodine: 13.73 ng·h/mL
  C0 of desfesoterodine: 38.71 ng/mL
[2]; fesoterodine 0.25 mg/kg IV, rats
  plasma exposures of desfesoterodine, fesoterodine alone vs in combination with Compound 1: similar
[3]; Fesoterodine 0.0078 mg/mL + Compound 1 (1.5 mg/kg)
  Plasma Concentration 1-Hour Post-procedure (mean value), Desfesoterodine (5-HMT): BLQ
[3]; Fesoterodine 0.0156 mg/mL + Compound 1 (1.5 mg/kg)
  Plasma Concentration 1-Hour Post-procedure (mean value), Desfesoterodine (5-HMT): BLQ
[3]; Fesoterodine 0.0312 mg/mL + Compound 1 (1.5 mg/kg)
  Plasma Concentration 1-Hour Post-procedure (mean value), Desfesoterodine (5-HMT): BLQ
[3]; Fesoterodine 0.0625 mg/mL + Compound 1 (1.5 mg/kg)
  Plasma Concentration 1-Hour Post-procedure (mean value), Desfesoterodine (5-HMT): BLQ
[3]; Fesoterodine 0.125 mg/mL + Compound 1 (1.5 mg/kg)
  Plasma Concentration 1-Hour Post-procedure (mean value), Desfesoterodine (5-HMT): BLQ
[3]; Fesoterodine 0.25mg/mL + Compound 1 (1.5 mg/kg)
  Plasma Concentration 1-Hour Post-procedure (mean value), Desfesoterodine (5-HMT): 5.15 ng/mL
[3]; Fesoterodine 0.5 mg/mL + Compound 1 (1.5 mg/kg)
  Plasma Concentration 1-Hour Post-procedure (mean value), Desfesoterodine (5-HMT): 6.19 ng/mL
[4]
  mean desfesoterodine concentration in CSF at 1hour after administration of compound 1: 121.44 pg/mL
